Assay results from patent US20060216356A1, “Detection of antibacterial activity in excretory secretory product of adult trichuris suis” (Board of Trustees of Michigan State University, priority 2000, published 2006).
≈ marks a conversion by molar mass, not a printed value. Where a name gives a salt, the structure may show the parent alone.

How the values were obtained:
Campylobacter jejuni [1] = assay: Broth microdilution MIC/MBC and antibacterial titer on Campylobacter jejuni; format: cell-based
Procedure: Bacterial strains and media. The antibacterial activity in Trichuris suis ESP was originally observed using Campylobacter jejuni (ATCC 33292), and this was the strain on which most experiments were performed for this preliminary characterization. Several Campylobacter jejuni and Campylobacter coli isolates were used for MIC determinations (Table 1).
Additional quality control organisms routinely used for antimicrobial susceptibility assays were tested, including Enterococcus faecalis (ATCC 29212), Staphylococcus aureus (ATCC 25923), Escherichia coli (ATCC 25922), Pseudomonas aeruginosa (ATCC 27853), and Streptococcus pneumonia (ATCC 49619). […]
(§1) A broth microdilution method in 96 well plates was used to obtain qualitative and quantitative measures of antibacterial activity. Qualitatively, 50 μl samples of ESP were added to 50 μl suspensions of Campylobacter jejuni (containing about 5×10^5 cfu, as determined by standard serial dilution and plating) in 96 well plates. Plates were evaluated for growth as indicated by the presence of either turbidity or pellet of bacterial cells in the bottoms of U-shaped wells after 48 hr incubation.
To quantify activity and determine the minimum inhibitory concentration (MIC) of ESP against test organisms, serial two-fold dilutions of 20×-concentrated ESP were prepared in 50 μl volumes of MHB (n=2). […]

Campylobacter jejuni [2] = assay: HPLC fractionation with qualitative broth microdilution bioassay of fractions; format: cell-based; details: C18 reverse phase HPLC, 5-80% ACN gradient in TFA
Procedure: as §1
High performance liquid chromatography. A Model 173 high performance liquid chromatography (HPLC) system (Perkin Elmer Applied Biosystems, Inc., Foster City, Calif.) at the Michigan State University Macromolecular Structure Facility was used to fractionate Trichuris suis ESP for preliminary isolation of the antibacterial activity (Hearn, Meth. Enzymol. 104: 190-212 (1984)). Samples (150 μl) of ESP were mixed with an equal volume of 0.1% trifluoroacetic acid (TFA) and centrifuged at full speed (11,000×g) at room temperature for 15 minutes. […] Absorbance of the eluate was monitored at 214 nm, and fractions were collected manually as peaks were detected. […]

Campylobacter jejuni [3] = assay: Effect of boiling on antibiotics, qualitative broth microdilution assay; format: cell-based; details: 1x concentration, boiled for 10 minutes
Procedure: as §1, with “incubation. […] The size of the drug was also taken into consideration. Additionally, an experiment to assess the heat stability of the antibiotics was performed.” for “incubation.”

[4] = n-octanol/water partition coefficient (log PC) of antibiotics; format: physicochemical; details: in parentheses beside log PC
Procedure: Consideration of CAP contamination. […] Using the worst-case scenario, the predicted maximum amount of CAP absorbed and how much would be released into the medium if the whipworms dissolved (i.e., released 100%) was estimated. […] It was assumed that the aggregate whipworm volume of these eccentrically shaped nematodes occupied 4% of the incubation well volume (4 whipworms/ml at about 10 μl/whipworm).

[5] = compiled from a drug database at Upjohn; cited from earlier work

| SMILES | MIC (Campylobacter jejuni [1]) [mg/L] | antibacterial activity of HPLC fractions (Campylobacter jejuni [2]) | Antibacterial activity after boiling (Campylobacter jejuni [3]) | Concentrating factor [4] [x] | log PC (n-octanol/water partition coefficient) [5] |
| --- | --- | --- | --- | --- | --- |
| O=C(N[C@H](CO)[C@H](O)c1ccc([N+](=O)[O-])cc1)C(Cl)Cl [Chloramphenicol] | ~2 (≈ 6.19 µM) | one fraction with antibacterial activity | + |  |  |
| CC1(C)S[C@@H]2[C@H](NC(=O)Cc3ccccc3)C(=O)N2[C@H]1C(=O)O [Penicillin G] |  |  | − | 71 | 185 |
| [H]/N=C(/N)N[C@H]1[C@H](O)[C@@H](O)[C@H](O[C@@H]2O[C@@H](C)[C@](O)(C=O)[C@H]2O[C@@H]2O[C@@H](CO)[C@H](O)[C@@H](O)[C@@H]2NC)[C@@H](N/C(N)=N\[H])[C@@H]1O [Streptomycin sulfate] |  |  | + |  | −9.53(—) |
